We go through 2 compounds from US6646009B2, “N-(aryl)-2-arylethenesulfonamides and therapeutic uses thereof” (Temple University — Of Commonwealth System of Higher …, priority 2001, dated 2003).

In one assay the test system is DU145. The experiment in a line: GI50 growth inhibition, DU145. It counts as cell-based. The protocol: (§1) The effect of the N-(aryl)-2-arylethenesulfonamides on normal fibroblasts and on tumor cells was determined by the assay described by Latham et al, Oncogene 12:827-837 (1996). Normal diploid lung human fibroblasts (HFL-1) or tumor cells (prostate, colorectal, breast, glial, pancreatic ovarian or leukemic) were plated in 6-well dishes at a cell density of 1.0×10^5 cells per 35-mm^2 well. The plated cells were treated 24 hours later with various concentrations of N-(aryl)-2-arylethenesulfonamide dissolved in dimethyl sulfoxide (DMSO). The total number of viable cells was determined 96 hours later by trypsinizing the wells and counting the number of viable cells, as determined by trypan blue exclusion, using a hemacytometer. Each compound tested (Exs. 1-17) inhibited cell proliferation when tested at a concentration of 30 micromolar. […] Normal HFL cells were treated with the same compounds under the same conditions of concentration and time.
(§2) A dose response curve was plotted for the tumor growth inhibitory effect of (E)-4-methoxystyryl-N-4-fluorophenyl sulfonamide on the estrogen-unresponsive breast cell line BT-20 (FIG. 1). The GI50 (the concentration of drug resulting in 50% net loss of growth inhibition) was determined as 10 μM. […] The (E)-4-methoxystyryl-N-4-fluorophenyl sulfonamide GI50 for the same compound against the cell lines listed in Table 7 was determined in the same manner.

For another assay, the system named is PC-3. The assay can be described thus: GI50 growth inhibition, PC-3. It counts as cell-based. The conditions noted are these: Homo sapiens; PC-3, Prostate. Here is the method: as §1, §2
A further assay deals with LNCAP. The assay can be described thus: GI50 growth inhibition, LNCAP. It counts as cell-based. As to conditions: Homo sapiens, Prostate. The protocol:
as §1, §2

In another assay the test system is DLD-1. The assay can be described thus: GI50 growth inhibition, DLD-1. It counts as cell-based. Here is the method: as §1, §2
For the next assay, the system named is HCT-116. The experiment in a line: GI50 growth inhibition, HCT-116. It counts as cell-based. As to conditions: Homo sapiens; HCT-116, Colo-rectal. The protocol:
as §1, §2

The test system of a further assay is COLO-320. The experiment in a line: GI50 growth inhibition, COLO-320. The assay is classed as cell-based. As to conditions: Homo sapiens; COLO-320, Colo-rectal. Here is the method: as §1, §2
In assay [1] the test system is estrogen-unresponsive breast cell line BT-20. The experiment in a line: GI50 growth inhibition, BT-20. The assay is classed as cell-based. The protocol:
as §1, §2

For a further assay, the system named is SK-br-3. The assay can be described thus: GI50 growth inhibition, SK-br-3. The assay is classed as cell-based. As to conditions: Homo sapiens; SK-br-3, Breast. Here is the method: as §1, §2
Another assay concerns U87. The experiment in a line: GI50 growth inhibition, U87. The assay is classed as cell-based. As to conditions: Homo sapiens, U-87 MG; U87, Glioblastoma. Here is the method:
as §1, §2

The next assay has as its system MIA-PaCa-2. The experiment in a line: GI50 growth inhibition, MIA-PaCa-2. The assay is classed as cell-based. The conditions noted are these: Homo sapiens; MIA-PaCa-2, Pancreatic. Here is the method: as §1, §2
The next assay deals with SK-ov-3. The assay can be described thus: GI50 growth inhibition, SK-ov-3. It counts as cell-based. The conditions noted are these: Homo sapiens; SK-ov-3, Ovarian. The protocol: as §1, §2
The subject of the next assay is CEM. The experiment in a line: GI50 growth inhibition, CEM. It counts as cell-based. As to conditions: Homo sapiens, CCRF-CEM, Leukemic. Here is the method: as §1, §2
Assay [2] deals with normal fibroblast line HFL-1. The assay can be described thus: GI50 growth inhibition, HFL-1. The assay is classed as cell-based. The conditions noted are these: Homo sapiens, HFL1; HFL-1, Normal diploid lung. The protocol: as §1, §2
In a further assay the test system is BT20 cells. The experiment in a line: Induction of apoptosis: PARP cleavage Western blot, BT20. It counts as cell-based. As to conditions: 20 μM, 96 hours. An excerpt:
(§3) The caspases and the ICE-family proteases are cysteine proteases which are activated during apoptosis (Patel et al., FASEB 10:587-597, 1996). The cleavage of poly(ADP-ribose) polymerase (PARP), which is a target of caspase-3, apopain, and several other activated proteases, is a widely used and accepted marker for apoptosis (Nicholson et al., Nature 376(6533):37-43, 1995; Lippke et al., J. Biol. Chemistry 271:1825, 1996). For this assay, BT20 cells, an estrogen receptor negative breast carcinoma, and HFL-1 cells, normal lung fibroblasts, were treated with either (E)-4-methoxystyryl-N-4-fluorophenyl sulfonamide at a final concentration of 20 μM or dimethyl sulfoxide (DMSO) for 96 hours. The cells were then lysed in RIPA buffer and 100 μg of total cellular protein from each sample was resolved on a 10% SDS-polyacrylamide gel. The proteins were then Western blotted onto PROTRAN filter paper (S/S) and the filter was then probed with antibody (Boehringer Mannheim) specific for PARP. This antibody recognizes both the 116 kDa full length PARP and the 83 kDa cleaved product. […] The BT20 cells treated with DMSO for the same amount of time also had no activation of the apoptotic pathway.
For orientation: In western blotting, separated proteins are transferred to a membrane and probed.

A further assay deals with HFL-1 cells. The experiment in a line: Induction of apoptosis: PARP cleavage Western blot, HFL-1. As to conditions: 20 μM, 96 hours. It counts as cell-based, human.
Description: as §3

The subject of the next assay is H157. The experiment in a line: GI50 growth inhibition, H157. It counts as cell-based. The conditions noted are these: result in words. The protocol: The effect of the N-(aryl)-2-arylethenesulfonamides on normal fibroblasts and on tumor cells was determined by the assay described by Latham et al, Oncogene 12:827-837 (1996). Normal diploid lung human fibroblasts (HFL-1) or tumor cells (prostate, colorectal, breast, glial, pancreatic ovarian or leukemic) were plated in 6-well dishes at a cell density of 1.0×10^5 cells per 35-mm^2 well. The plated cells were treated 24 hours later with various concentrations of N-(aryl)-2-arylethenesulfonamide dissolved in dimethyl sulfoxide (DMSO). The total number of viable cells was determined 96 hours later by trypsinizing the wells and counting the number of viable cells, as determined by trypan blue exclusion, using a hemacytometer. Each compound tested (Exs. 1-17) inhibited cell proliferation when tested at a concentration of 30 micromolar. […]
A dose response curve was plotted for the tumor growth inhibitory effect of (E)-4-methoxystyryl-N-4-fluorophenyl sulfonamide on the estrogen-unresponsive breast cell line BT-20 (FIG. 1). […] The (E)-4-methoxystyryl-N-4-fluorophenyl sulfonamide GI50 for the same compound against the cell lines listed in Table 7 was determined in the same manner.
The GI50 of (E)-4-methoxystyryl-N-3-fluoro-4-methoxyphenyl sulfonamide was determined for the following cell lines: BT20, DU145, H157 and DLD-1.

Broadly, the GI50 is the concentration that inhibits growth by half. The low end stands for greater sensitivity of the cells, the high end for lower sensitivity of the cells. Turning to `COc1ccc(/C=C/S(=O)(=O)Nc2ccc(F)cc2)cc1` [Example 4, (E)-4-methoxystyryl-N-4-fluorophenyl sulfonamide], the GI50 stood at 10 µM in the assay on DU145 (Homo sapiens, DU-145, DU145, Prostate); 20 µM in the assay on PC-3; 20 µM with LNCAP; 15 µM in the assay with DLD-1 (Homo sapiens, DLD-1, Colo-rectal); 20 µM in the assay with HCT-116; 5 µM in the assay on COLO-320. Also, the GI50 in [1] (Homo sapiens, BT-20 (BT2O), Breast) is 10 µM; in the assay on SK-br-3, 30 µM; in the assay on U87, 20 µM; in the assay with MIA-PaCa-2, 7 µM; with SK-ov-3, 15 µM; in the assay on CEM, 30 µM. For the same compound, growth in [2] was halved (GI50) at 50 µM. Moreover, the “PARP cleavage (83 kDa product, marker for apoptosis)” value with BT20 cells is reported as “presence of the 83 kDa PARP cleavage product”; in the assay on HFL-1 cells, “no cleavage of the full length PARP”.
For the compound `COc1ccc(/C=C/S(=O)(=O)Nc2ccc(OC)c(F)c2)cc1` [Example 5, (E)-4-methoxystyryl-N-3-fluoro4-methoxyphenyl sulfonamide], the “GI50 compared with (E)-4-methoxystyryl-N-4-fluorophenyl sulfonamide” value was “in essential agreement” in the assay on DU145 (DU145, result in words); “in essential agreement” with DLD-1 (DLD-1, result in words); “in essential agreement” in assay [1] (BT20, result in words); “in essential agreement” in the assay on H157.
